We go through one molecule from patent publication US20230293432A1, “POLYMERIC MICELLES COMPRISING GLUCURONIDE-PRODRUGS” (Rheinisch-Westfälische Technische Hochschule (RWTH), priority 2020, published 2023).

This assay has as its system breast cancer 4T1 cells. The assay is described as follows: In vitro calreticulin (CRT) translocation by flow cytometry. The settings on record: anti-CRT antibody staining, vs untreated control, FIG. 6A. Type of assay: cell-based. How it is done: In a further experiment the ability of doxorubicin and doxorubicin double spacer prodrug and doxorubicin double spacer prodrug in polymeric micelles to induce immunogenicity of tumor cells was assessed in vitro. As one of the most studied phenotypes of immunogenic cell death, calreticulin (CRT) […] to outer surface of cancer cells is able to attract antigen presenting cells to endocytose apoptotic cancer cells. CRT translocation was measured by flow cryometry. To assess CRT translocation induced by the formulations, they were added to breast cancer 4T1 cells which were cultured overnight at 37° C. in RPMI 1640 medium containing 10% FBS and 1% penicillin. After incubation, the cells were washed with PBS and then detached. The CRT translocated to the outer surface of the cells was labeled with anti-CRT antibodies.

As for `COc1cccc2c1C(=O)c1c(O)c3c(c(O)c1C2=O)C[C@@](O)(C(=O)CO)C[C@@H]3O[C@H]1C[C@H](N)[C@H](O)[C@H](C)O1` [DOX, doxorubicin], the “signal of CRT in flow cytometry plots” value is “higher signal of CRT compared to untreated control”.
